Data on eight molecules can be found in US20180207114A1, “ESTROGEN RELATED RECEPTOR GAMMA (ERRgamma) ENHANCES AND MAINTAINS BROWN FAT THERMOGENIC CAPACITY” (Salk Institute for Biological Studies, priority 2015, published 2018).

For one assay, the target named is T1, ERRβ (Homo sapiens, UniProt O95718).
T1 sequence (O95718 1-433): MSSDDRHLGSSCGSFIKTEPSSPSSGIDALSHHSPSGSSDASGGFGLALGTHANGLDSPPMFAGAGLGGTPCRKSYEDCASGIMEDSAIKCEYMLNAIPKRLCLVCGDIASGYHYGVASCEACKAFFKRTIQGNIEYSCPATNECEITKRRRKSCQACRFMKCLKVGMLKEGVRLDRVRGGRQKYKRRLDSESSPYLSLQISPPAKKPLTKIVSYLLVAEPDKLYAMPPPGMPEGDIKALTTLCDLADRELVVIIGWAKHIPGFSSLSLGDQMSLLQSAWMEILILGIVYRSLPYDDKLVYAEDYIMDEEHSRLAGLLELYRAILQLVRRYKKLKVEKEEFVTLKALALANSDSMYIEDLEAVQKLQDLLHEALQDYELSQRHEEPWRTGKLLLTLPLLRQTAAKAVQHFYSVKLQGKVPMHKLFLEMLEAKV
Conditions: for example in the presence of PGC-1a; cited from earlier work.

The next assay has as its target T2, ERRα (Homo sapiens, UniProt P11474).
T2 sequence (P11474 1-423): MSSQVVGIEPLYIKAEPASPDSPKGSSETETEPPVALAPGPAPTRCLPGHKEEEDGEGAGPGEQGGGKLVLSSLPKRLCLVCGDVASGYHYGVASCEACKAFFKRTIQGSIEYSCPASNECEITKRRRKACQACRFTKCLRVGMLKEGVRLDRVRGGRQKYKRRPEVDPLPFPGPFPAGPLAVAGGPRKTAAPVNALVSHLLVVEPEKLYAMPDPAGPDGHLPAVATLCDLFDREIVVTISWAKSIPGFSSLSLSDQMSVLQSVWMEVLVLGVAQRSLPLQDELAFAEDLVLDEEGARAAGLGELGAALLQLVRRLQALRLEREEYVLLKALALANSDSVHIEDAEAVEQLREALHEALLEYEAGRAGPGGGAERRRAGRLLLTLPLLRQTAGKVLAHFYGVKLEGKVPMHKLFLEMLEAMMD
Conditions: for example in the presence of PGC-1a; cited from earlier work.

Assay [1] has as its target T3, ERRγ (Homo sapiens, UniProt P62508).
T3 sequence (P62508 1-458): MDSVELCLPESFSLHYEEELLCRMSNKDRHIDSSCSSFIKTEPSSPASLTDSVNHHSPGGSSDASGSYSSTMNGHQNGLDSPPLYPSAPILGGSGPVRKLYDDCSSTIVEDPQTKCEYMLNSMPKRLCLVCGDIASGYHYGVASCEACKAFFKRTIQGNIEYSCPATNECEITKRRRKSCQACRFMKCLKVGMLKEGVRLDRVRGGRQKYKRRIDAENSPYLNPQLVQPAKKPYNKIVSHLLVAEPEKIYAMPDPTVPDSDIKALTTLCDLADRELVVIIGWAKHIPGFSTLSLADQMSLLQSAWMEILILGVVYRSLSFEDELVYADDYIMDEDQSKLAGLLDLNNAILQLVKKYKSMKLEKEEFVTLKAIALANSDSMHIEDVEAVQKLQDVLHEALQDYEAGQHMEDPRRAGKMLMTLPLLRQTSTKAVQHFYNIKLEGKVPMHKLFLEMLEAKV
Conditions: for example in the presence of PGC-1a; cited from earlier work.

Assay [2] concerns differentiated PAZ-6 brown adipocytes. Briefly: Seahorse XF oxygen consumption assay in differentiated PAZ-6 brown adipocytes. The assay is classed as cell-based, human. The protocol:
PAZ-6 human brown adipocytes were differentiated as previously described (18). Human adipose derived stem cells were cultured as previously described.
Bioenergetic profiles were analyzed using a XF24XF analyzer (Seahorse Bioscience) and the XF Palmitate-BSA FAO Substrate (Seahorse Bioscience).

The target in assay [3] is T3, ERRγ. To be noted: cited from earlier work.
In assay [4] the test system is control flox/flox (WT) and ERRγ ASKO (KO) mice. Nature of the assay: Oxygen consumption (VO2, CLAMS) after intraperitoneal injection of beta adrenergic agonist in mice. It is filed as in vivo, mouse. The protocol: ERRγ flox/flox mice were crossed with adiponectin-Cre mice (Jackson Laboratory) to generate ERRγ-ASKO mice. ERRγ-ASKO mice and flox/flox control littermates received a standard chow diet (MI laboratory rodent diet 5001, Harlan Teklad) or high fat (60%) diet (F3282, Bio-Serv) and water ad libitum. All mice used for studies were male unless otherwise noted. Mice were housed at thermoneutrality (30° C.) unless otherwise indicated. PPARα null mice were purchased from Jackson laboratory.
Oxygen consumption (VO2) was measured using the Comprehensive Laboratory Animal Monitoring System (CLAMS; Columbus, Ohio). Data were normalized to body weights. Body temperatures were assessed using a RET-3 rectal probe for mice (Physitemp). CL316243 (Sigma) and norepinephrine were intraperitoneally injected into mice at 1 mg/kg body weight.

Take `Cc1cccc(C=NNC(=O)c2ccc(O)cc2)c1` [DY159]: at ERRβ, the “activation of ERRβ” value is reported as “activate”. Further, the “activation of ERRα” value on ERRα is reported as “activate”. Besides, the “activation of ERRγ” value at ERRγ [1] was “activate”.

Consider `Cc1ccc(/C=N/NC(=O)c2ccc(O)cc2)cc1` [DY163], for which, at ERRβ, the “activation of ERRβ” value is listed as “activate”. Besides, on ERRα, the “activation of ERRα” value is “activate”. Besides, the “activation of ERRγ” value at ERRγ [1] is on record as “activate”.

Turning to `CC(C)c1ccc(/C=N/NC(=O)c2ccc(O)cc2)cc1` [GSK4716], the “Increase in oxygen consumption rate in the presence or absence of palmitate” value in assay [2] (differentiated PAZ-6, 10 μM overnight, with vs without palmitate (FIG. 5M)) was “only occurred in the presence of fatty acids”. For the same molecule, the “proton leak or uncoupling” value in assay [2] (differentiated PAZ-6 treated overnight with 10 μM vs DMSO vehicle) is “higher”. In assay [2] (differentiated PAZ-6 treated overnight with 10 μM vs DMSO vehicle, in the presence of fatty acids (palmitate)), the Oxygen consumption rate result is reported as “higher”.

With `O=C(NN=Cc1ccccc1)c1ccc(O)cc1` [DY162], at ERRβ, the “activation of ERRβ” value is given as “activate”. The “activation of ERRα” value at ERRα was “activate”. Moreover, on ERRγ [1], the “activation of ERRγ” value is “activate”.

For the molecule `Nc1ccc(C(=O)N/N=C/c2ccc(/N=N/c3ccccc3)cc2)cn1` [E6], at ERRγ [3], the “selectivity for ERRγ over ERRα and β” value is “selective for ERRγ but not ERRα and β”.

As to `CCc1ccc(C=NNC(=O)c2ccc(O)cc2)s1` [DY164], the “activation of ERRβ” value on ERRβ is on record as “activate”. On ERRα, the “activation of ERRα” value is given as “activate”. For the same molecule, on ERRγ [1], the “activation of ERRγ” value is given as “activate”.

On to `C[C@H](Cc1ccc2c(c1)OC(C(=O)[O-])(C(=O)[O-])O2)NC[C@H](O)c1cccc(Cl)c1.[Na+].[Na+]` [CL316243], for which the “response (VO2, RER) to injection” value in assay [4] (ERRγ-ASKO female mice at thermoneutrality, 1 mg/kg BW intraperitoneal) is “blunted”.

As to `NC[C@H](O)c1ccc(O)c(O)c1` [NE, norepinephrine], the “metabolic rate (VO2) response upon injection” value in assay [4] (ERRγ-ASKO mice at thermoneutrality, 1 mg/kg intraperitoneal) is listed as “severely blunted”. Moreover, the “metabolic rate (oxygen consumption, VO2) upon injection” value in assay [4] (control flox/flox mice at thermoneutrality, 1 mg/kg intraperitoneal) is given as “increased”.
